Measurements as given in US20230150978A1, “QUINAZOLINONE DERIVATIVES AND USES THEREOF FOR TREATING A CANCER” (ENYO PHARMA, priority 2020, published 2023).
Where two headings read alike, the source gives them in different places.

Key:
Calreticulin = Calreticulin release (ER to plasma membrane translocation) screen, Nano-Glo HiBiT extracellular detection; format: cell-based; settings: extracellular luminescence, read-out: CalR EC50
Description: (§1) Construction of pBiT3.1-Calreticulin Plasmid Calreticulin derived from pCMV6-AC plasmid (ref. SC320287, Origene) was amplified by PCR using the following set of primers: Seq ID No 3: forward, 5′-[…]-3′; Seq ID No 4: reverse, 5′-[…]-3′. The PCR fragment was subsequently digested by EcoRI and XhoI (R3101S and R0146S respectively, New England Biolabs) and inserted between the EcoRI and XhoI sites in the plasmid pBiT3.1-C(ref. N237A, Promega). The resulting plasmid (pBiT3.1-Calreticulin) was grown in NEB10-beta competent E. coli (ref. C3019I, New England Biolabs) and purified using the NucleoBond Xtra Midi Kit (ref. 740410, Macherey-Nagel).
Construction of Calreticulin Reporter Cell Line
(§2) pBiT3.1-Calreticulin was transfected in MDA-MB-231 cells (ref. ATCC HTB-2) using Lipofectamine 2000 reagent (ref. 11668, Invitrogen). Transfected cells were selected for blasticidin resistance (15 μg/ml, ref. Al 113903 Gibco) in medium containing DMEM 1× (ref. 1995065, Gibco) with 1% penicillin and streptomycin, and 10% fetal bovine serum.
Screen for Calreticulin-ER to Plasma Membrane Translocating Drugs
(§3) MDA-MB-231 cells stably expressing Calreticulin-HiBiT (10^4 cells/well) were seeded into white 96-well plates (ref.3917, Corning) and allowed to recover for 24h. […] Mitoxantrone dihydrochloride (ref. M6545, Sigma-Aldrich) was used as a positive control. Extracellular translocation of Calreticulin was measured using the Nano-Glo HiBiT extracellular detection system (ref. N2422, Promega). Nano-Glo HiBiT Extracellular Reagent was prepared in advance, added to the well and incubated 10 min.
Luminescence of the extracellular Calreticulin-HiBiT was quantified using the Spark 20M spectrofluorimeter (TECAN).

HMGB1 = HMGB1 release screen, Nano-Glo HiBiT extracellular detection; format: cell-based; settings: extracellular luminescence
Description: Construction of pBiT3.1-HMGB1 Plasmid
as §1, with “HMGB1” for “Construction of pBiT3.1-Calreticulin Plasmid Calreticulin”, “pCMV6-AC-GFP” for “pCMV6-AC”, “RG205918,” for “SC320287,”, “1:” for “3:”, “2:” for “4:”, “(pBiT3.1-HMGB1)” for “(pBiT3.1-Calreticulin)”
Construction of HMGB1 Reporter Cell Line
as §2, with “pBiT3.1-HMGB1” for “pBiT3.1-Calreticulin”
Screen for HMGB1-Releasing Drugs
as §3, with “HMGB1-HiBiT” for “Calreticulin-HiBiT”, “HMGB1” for “Calreticulin”, “min. Luminescence of the extracellular HMGB1-HiBiT was quantified using the Spark 20M spectrofluorimeter (TECAN)” for “min.”

[1] = MDA-MB-231 cells stably expressing Calreticulin-HiBiT
[2] = MDA-MB-231 cells stably expressing HMGB1-HiBiT
[3] = Homo sapiens, MDA-MB-231, MDA-MB-231 cells stably expressing Calreticulin-HiBiT
[4] = Homo sapiens, MDA-MB-231, MDA-MB-231 cells stably expressing HMGB1-HiBiT

| Structure (SMILES) | EC50 (Calreticulin; [1]) [µM] | EC50 (HMGB1; [2]) [µM] | EC50 (Calreticulin; [3]) [µM] | EC50 (HMGB1; [4]) [µM] |
| --- | --- | --- | --- | --- |
| COc1ccc2nc(CN3CC(C)c4ccccc43)[nH]c(=O)c2c1 (single isomer, unassigned) [Ex. #4, 6-methoxy-2-[(3-methylindolin-1-yl)methyl]-3H-quinazolin-4-one] | 0.172 | 0.207 | – | – |
| COc1ccc2nc(CN3CC(C)c4ccccc43)[nH]c(=O)c2c1 (single isomer, unassigned) [Ex. #5, 6-methoxy-2-[(3-methylindolin-1-yl)methyl]-3H-quinazolin-4-one] | 2.31 | 3.46 | – | – |
| CC1CN(Cc2nc3ccc(Cl)cc3c(=O)[nH]2)c2ccccc21 (single isomer, unassigned) [Ex. #38, 6-chloro-2-[(3-methylindolin-1-yl)methyl]-3H-quinazolin-4-one] | 0.499 | 0.721 | – | – |
| CC1CN(Cc2nc3ccc(Cl)cc3c(=O)[nH]2)c2ccccc21 (single isomer, unassigned) [Ex. #39, 6-chloro-2-[(3-methylindolin-1-yl)methyl]-3H-quinazolin-4-one] | 8.06 | 10.4 | – | – |
| COc1ccc2nc(CN3Cc4ccccc4C3)[nH]c(=O)c2c1 [Ex. #10, 2-(isoindolin-2-ylmethyl)-6-methoxy-3H-quinazolin-4-one] | – | – | 4.46 | 6.86 |
| COc1ccc2nc(CN3CCc4cccc(OC)c4C3)[nH]c(=O)c2c1 [Ex. #19, 6-methoxy-2-[(8-methoxy-3,4-dihydro-1H-isoquinolin-2-yl)methyl]-3H-quinazolin-4-one] | – | – | 7.36 | 10.2 |
| COc1ccc2nc(CN3CCc4c(Cl)cccc4C3)[nH]c(=O)c2c1 [Ex. #20, 2-[(5-chloro-3,4-dihydro-1H-isoquinolin-2-yl)methyl]-6-methoxy-3H-quinazolin-4-one] | – | – | 4.26 | 10.8 |
| CC1Cc2ccccc2N1Cc1nc2ccc(Cl)cc2c(=O)[nH]1 (centres unmarked) [Ex. #41, 6-chloro-2-[(2-methylindolin-1-yl)methyl]-3H-quinazolin-4-one] | – | – | 8.01 | 9.61 |
| O=c1[nH]c(CN2CCc3cc(Br)ccc32)nc2ccc(Cl)cc12 [Ex. #48, 2-[(5-bromoindolin-1-yl)methyl]-6-chloro-3H-quinazolin-4-one] | – | – | 5.96 | 6.06 |
| COc1cccc2c1N(Cc1nc3ccc(Cl)cc3c(=O)[nH]1)CC2 [Ex. #49, 6-chloro-2-[(7-methoxyindolin-1-yl)methyl]-3H-quinazolin-4-one] | – | – | 7.56 | 11.2 |
| O=c1[nH]c(CN2Cc3ccccc3C2)nc2ccc(Cl)cc12 [Ex. #50, 6-chloro-2-(isoindolin-2-ylmethyl)-3H-quinazolin-4-one] | – | – | 4.66 | 11.6 |
| O=c1[nH]c(CN2CCCc3ccccc32)nc2ccc(Cl)cc12 [Ex. #51, 6-chloro-2-(3,4-dihydro-2H-quinolin-1-ylmethyl)-3H-quinazolin-4-one] | – | – | 10.3 | 11.8 |
| COc1ccc2c(c1)N(Cc1nc3ccc(Cl)cc3c(=O)[nH]1)CCC2 [Ex. #55, 6-chloro-2-[(7-methoxy-3,4-dihydro-2H-quinolin-1-yl)methyl]-3H-quinazolin-4-one] | – | – | 11.3 | 10.8 |
| O=c1[nH]c(CN2CCOc3ccccc32)nc2ccc(Cl)cc12 [Ex. #57, 6-chloro-2-(2,3-dihydro-1,4-benzoxazin-4-ylmethyl)-3H-quinazolin-4-one] | – | – | 14.2 | 11.9 |

Now from value to molecule:

| EC50 (Calreticulin; [1]) [µM] | EC50 (HMGB1; [2]) [µM] | EC50 (Calreticulin; [3]) [µM] | EC50 (HMGB1; [4]) [µM] | Structure (SMILES) |
| --- | --- | --- | --- | --- |
| – | – | 1.96 | 2 | COc1ccc2nc(CN3CCCN(C)c4ccccc43)[nH]c(=O)c2c1 [Ex. 23, 6-methoxy-2-[(1-methyl-3,4-dihydro-2H-1,5-benzodiazepin-5-yl)methyl]-3H-quinazolin-4-one] |
| – | – | 0.231 | 2.72 | COc1ccc2nc(CN3CCc4ccccc43)[nH]c(=O)c2c1 [Ex. #1, 2-(indolin-1-ylmethyl)-6-methoxy-3H-quinazolin-4-one] |
| – | – | 0.4 | 0.6 | COc1ccc2nc(CN3CC(C)(C)c4ccccc43)[nH]c(=O)c2c1 [Ex. #2, 2-[(3,3-dimethylindolin-1-yl)methyl]-6-methoxy-3H-quinazolin-4-one] |
| – | – | 0.522 | 0.751 | COc1ccc2nc(CN3CCCc4cccc(Cl)c43)[nH]c(=O)c2c1 [Ex. #12, 2-[(8-chloro-3,4-dihydro-2H-quinolin-1-yl)methyl]-6-methoxy-3H-quinazolin-4-one] |
| – | – | 1.96 | 2.16 | COc1ccc2nc(CN3CCOc4cccc(OC)c43)[nH]c(=O)c2c1 [Ex. #14, 6-methoxy-2-[(5-methoxy-2,3-dihydro-1,4-benzoxazin-4-yl)methyl]-3H-quinazolin-4-one] |
| – | – | 1.06 | 3.34 | COc1ccc2nc(CN3CCCc4ccccc43)[nH]c(=O)c2c1 [Ex. #15, 2-(3,4-dihydro-2H-quinolin-1-ylmethyl)-6-methoxy-3H-quinazolin-4-one] |
| – | – | 2.06 | 9.36 | COc1ccc2nc(CN3CCc4c(Br)cccc4C3)[nH]c(=O)c2c1 [Ex. #18, 2-[(5-bromo-3,4-dihydro-1H-isoquinolin-2-yl)methyl]-6-methoxy-3H-quinazolin-4-one] |
| – | – | 3.96 | 11.2 | COc1ccc2nc(CN3CCc4c(cccc4NS(C)(=O)=O)C3)[nH]c(=O)c2c1 [Ex. #21, N-[2-[(6-methoxy-4-oxo-3H-quinazolin-2-yl)methyl]-3,4-dihydro-1H-isoquinolin-5-yl]methanesulfonamide] |
| – | – | 1.8 | 1.01 | O=c1[nH]c(CN2CCc3ccccc32)nc2ccc(Cl)cc12 [Ex. #36, 6-chloro-2-(indolin-1-ylmethyl)-3H-quinazolin-4-one] |
| – | – | 1.76 | 3.55 | O=c1[nH]c(CN2CC3(CCCC3)c3ccccc32)nc2ccc(Cl)cc12 [Ex. #42, 6-chloro-2-(spiro[cyclopentane-1,3′-indoline]-1′-ylmethyl)-3H-quinazolin-4-one] |
| – | – | 1.07 | 1.15 | Cc1cccc2c1CCN2Cc1nc2ccc(Cl)cc2c(=O)[nH]1 [Ex. #43, 6-chloro-2-[(4-methylindolin-1-yl)methyl]-3H-quinazolin-4-one] |
| – | – | 1.26 | 1.33 | Cc1cccc2c1N(Cc1nc3ccc(Cl)cc3c(=O)[nH]1)CC2 [Ex. #44, 6-chloro-2-[(7-methylindolin-1-yl)methyl]-3H-quinazolin-4-one] |
| – | – | 1.21 | 4.66 | Cc1ccc2c(c1)N(Cc1nc3ccc(Cl)cc3c(=O)[nH]1)CC2 [Ex. #45, 6-chloro-2-[(6-methylindolin-1-yl)methyl]-3H-quinazolin-4-one] |
| – | – | 2.71 | 5.51 | Cc1ccc2c(c1)CCN2Cc1nc2ccc(Cl)cc2c(=O)[nH]1 [Ex. #46, 6-chloro-2-[(5-methylindolin-1-yl)methyl]-3H-quinazolin-4-one] |
| – | – | 2.18 | 3.98 | O=c1[nH]c(CN2CCc3cc(F)ccc32)nc2ccc(Cl)cc12 [Ex. #47, 6-chloro-2-[(5-fluoroindolin-1-yl)methyl]-3H-quinazolin-4-one] |
| – | – | 1.26 | 1.36 | COc1cccc2c1CCCN2Cc1nc2ccc(Cl)cc2c(=O)[nH]1 [Ex. #52, 6-chloro-2-[(5-methoxy-3,4-dihydro-2H-quinolin-1-yl)methyl]-3H-quinazolin-4-one] |
| – | – | 0.73 | 2.51 | Cc1cccc2c1CCCN2Cc1nc2ccc(Cl)cc2c(=O)[nH]1 [Ex. #53, 6-chloro-2-[(5-methyl-3,4-dihydro-2H-quinolin-1-yl)methyl]-3H-quinazolin-4-one] |
